Data on 15 compounds can be found in PubChem BioAssay (NCI).

What all share (experiment): growth of human tumour cells (NCI), 48 h
The test system of test [1] is CAKI-1 renal.
Test [2] concerns NCI-H23 lung.
Test [3] has as its system OVCAR-8 ovarian.
For test [4], the system named is SF-268 CNS.
Test [5] concerns SK-MEL-5 melanoma.
Test [6] relates to SK-OV-3 ovarian.
In test [7] the test system is SNB-75 CNS.
Test [8] has as its system TK-10 renal.
The subject of test [9] is UACC-62 melanoma.

Several values for one entry are separate records, joined by “and”; a condition that tells them apart may be missing. Equal entries are not always repeated.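 Where inhibition never reached the appropriate level, the endpoint shown equals the highest concentration tested. Otherwise, values were interpolated linearly from a five-concentration, 48-hour dose response in 96-well plates. Abbreviation: GI50, concentration required for 50% inhibition of growth. At the TGI there is no net growth.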

With `O=C(/C=C(\[O-])c1ccccc1)CCCCCCC(=O)/C=C(\[O-])c1ccccc1.O=C(/C=C(\[O-])c1ccccc1)CCCCCCC(=O)/C=C(\[O-])c1ccccc1.O=C(/C=C(\[O-])c1ccccc1)CCCCCCC(=O)/C=C(\[O-])c1ccccc1.[Y+3].[Y+3]`, the GI50 in test [1] is > 50 µM; in test [2], 13.4 µM; in test [3] it was 37.4 µM; in test [4], 41.5 µM; in test [5], 34.8 µM; in test [6], > 50 µM. The figures for the GI50 in test [7], in test [8] and in test [9] were 8.98 µM, > 50 µM and 47.5 µM, respectively. Moreover, the TGI in test [1], in test [2], in test [3], in test [4], in test [5] and in [6] was > 50 µM in each case. The values for the TGI in test [7], in test [8] and in test [9] were 22.2 µM, > 50 µM and > 50 µM, respectively.
Take `O/N=C1/C(=C/c2ccc(OCc3ccccc3)cc2)CCCC1C(NO)c1ccc(OCc2ccccc2)cc1` (stereo not drawn): the TGI in test [1] was 73.8 µM; in test [2], > 100 µM; in [3], > 100 µM; in [5], > 100 µM; in test [6], > 100 µM; in test [7], 97.9 µM.
For the compound `CCCCCNC(=O)CCCCCCCCCCCNC(=O)CCCCCCCCCCN1C=CC(=CC=C2C=CC(=O)C=C2)C=C1`, the TGI in test [1], in test [2], in test [3], in test [4], in test [5] and in test [6] was > 100 µM throughout. The TGI in test [7] is 68.3 µM; in test [9], > 100 µM.
`O=C1Nc2ccc(Cl)cc2/C1=N/c1nc(-c2ccc(Cl)cc2)cs1`: the GI50 is 1.29 µM in test [4], 1.5 µM in [6], 2.88 µM in test [8] and 1.54 µM in test [9]. The TGI turned out to be 4.41 µM in [4], 4.54 µM in test [6], 6.13 µM in test [8] and 4.1 µM in [9].
With `CC(=O)NC(CCCNC(=O)OCc1ccccc1)C(=O)NCc1ccccc1` (stereo not drawn), the TGI in test [1], in test [2], in test [3], in test [4], in [5] and in test [6] was > 100 µM in each case. Also, the TGI in test [7], in test [8] and in test [9] was > 100 µM in each case.
On to `Cc1ccccc1NC(=O)C1C(=O)N(c2ccccc2C)C(=O)/C1=N\NC(N)=O` (stereo not drawn), for which the TGI in [1] was > 100 µM; in test [2], > 100 µM; in test [3], > 100 µM; in test [4], > 100 µM; in test [5], > 100 µM; in test [7], 83.7 µM. Also, the TGI in [8] and in test [9] was > 100 µM each time.
With `CN1S(=O)(=O)N(C)P12(N=P(CP(=NP13(N(C)S(=O)(=O)N1C)N(C)S(=O)(=O)N3C)(c1ccccc1)c1ccccc1)(c1ccccc1)c1ccccc1)N(C)S(=O)(=O)N2C`, the TGI in [1], in [2], in test [3], in test [4], in test [5] and in test [6] was > 100 µM each time. Moreover, the TGI in test [7], in test [8] and in [9] was > 100 µM each time.
In the case of `CN(C)c1ccc(/C=c2/sc3nc(=O)c(-c4ccccc4NC(=O)C(F)(F)F)nn3c2=O)cc1`, the TGI in [1], in test [2], in [3], in [4], in test [5] and in [6] was > 100 µM each time. Besides, the TGI in [7], in [8] and in test [9] was > 100 µM throughout.
As to `CCCCC(C(=O)C(=O)Nc1ccccc1CC)C(=O)C(C)C` (stereo not drawn), the TGI in [1], in test [2], in [3], in test [4], in test [5] and in test [6] was > 100 µM throughout. The TGI in test [8] and in test [9] was > 100 µM each time.
Consider `O=C(CC1(O)C(=O)Nc2c(Cl)ccc(Cl)c21)c1ccc(Cl)cc1` (stereo not drawn), for which the TGI in test [1] is > 100 µM; in [2] it was 46.5 µM; in test [3] it was 42.1 µM; in test [4] it was 94 µM; in test [6], 90.9 µM; in [7], 64.9 µM. Also, the TGI in [8] is > 100 µM; in test [9], 48.9 µM.
Turning to `O=C1c2ccccc2C2(O)N(c3ccccc3)C(=S)N(c3ccccc3)C12O` (stereo not drawn), the TGI in test [1], in test [2], in test [3], in test [4], in test [5] and in test [6] was > 100 µM in each case. Also, the TGI in [7], in test [8] and in test [9] was > 100 µM each time.
With `CC(C)(C)c1ccc(OCCOCCOc2ccc(C(C)(C)C)cc2S(N)(=O)=O)c(S(N)(=O)=O)c1`, the TGI in [1], in test [2], in [3], in [4], in test [5] and in test [6] was > 100 µM throughout. Also, the TGI in test [7], in [8] and in [9] was > 100 µM throughout.
In the case of `O=c1c2cc(Br)ccc2nc(CNc2ccccc2)n1-c1ccccc1`, the TGI in test [1] was 11.6 µM; in [2] it was 34.1 µM; in test [3], > 57 µM; in test [4], > 54.7 µM; in [5], 38.1 µM; in [6] it was > 96.4 µM. The TGI in [7] was > 59.5 µM; in test [8] it was 45.5 µM; in test [9], 23.5 µM.
Take `N#Cc1c(CC(=O)O)cc(=O)n2c1[nH]c1ccccc12`: the TGI in test [1], in [2], in test [3], in test [4], in test [5] and in [6] was > 100 µM in each case. Besides, the TGI in test [7] and in [8] was > 100 µM throughout.
Turning to `CC(C)(C)C1CCC(O)(c2ccccc2)CC1` (stereo not drawn), the TGI is > 100 µM in test [2]; > 100 µM and 46.9 µM in test [3]; > 100 µM and 28.5 µM in [5]; > 100 µM in [6]; > 100 µM and 60 µM in test [7]; > 100 µM and 53.1 µM in test [8]. For the same compound, the TGI in [9] is > 100 µM and 45.1 µM.
